What was measured:
[1] = system: stomach cancer cell line S784; assay: Mouse model of stomach cancer, survival time; type: in vivo, TA2 mice; details: for Number of live animals remaining in the groups after 30 days of treatment: 30 mice per group
Protocol: In group 2ADM, the mice were injected intravenously with 1.5×10^5 units of doxorubicin (adriamycin, ADM) per kg body weight per day.

[2] = system: stomach cancer cells (cell line from a DMH-induced Wistar rat stomach cancer); assay: Wistar rat model of transplanted stomach cancer, growth of the tumor; type: in vivo, Wistar rats; details: 22nd day from tumor inoculation; 21 consecutive days; AY/NY 0.8 ml oral once per day, ADM 10^5 units per kg i.v. per day
Excerpt: The growth of the tumor in the rats was studied.
Numerous animal studies have reported the use of Wistar rats in the study of treating stomach cancer. 1,2-dimethylhydrazine (DMH) is a well-known effective trigger of stomach cancer in rats. Accordingly, this experiment used DMH in designing Wistar rat model of human stomach cancer. Detailed description of the use of 1,2-dimethylhydrazine to induce stomach cancer can be found in Watanabe H. et al., 1999, Jpn J Cancer Res. 90(11):1207–11, which is incorporated herein by reference in its entirety.
The animals used in the experiments were Wistar rats (obtainable from the Chinese Academy of Military Medical Sciences, Beijing, China). The stomach cancer cell line (obtainable from the First Military Medical University of China, Guangzhou, China) was generated in 1991 from a Wistar rat stomach cancer which was induced by subcutaneous injection of DMH. The rats were injected subcutaneously with 2.5×10^6 stomach cancer cells per animal.
In group AY, the rats received 0.8 ml of the biological composition once per day. In group NY, the rats received 0.8 ml of the untreated yeast cells once per day. In group ADM, the rats were injected intravenously with 10^5 units of doxorubicin (adriamycin, ADM) per kg body weight per day. In group CK1, the rats received 0.8 ml of physiological saline once per day. […]

[3] = system: stomach cancer cells (cell line from a DMH-induced Wistar rat stomach cancer); assay: Wistar rat model of transplanted stomach cancer, survival time; type: in vivo, Wistar rats; details: for Number of live animals remaining in the groups after 21 days of treatment: 30 rats per group
Protocol: In group 2ADM, the rats were injected intravenously with 1.5×10^5 units of doxorubicin (adriamycin, ADM) per kg body weight per day.

[4] = system: stomach cancer cell line S784; assay: TA2 mouse model of stomach cancer, growth of tumors; type: in vivo, TA2 mice; details: 31st day from tumor inoculation; 30 consecutive days; AY/NY 0.3 ml oral once per day, ADM 10^5 units per kg i.v. per day
Excerpt: The growth of tumors in the mice was studied.
Numerous animal studies have reported the use of murine models in the study of treating stomach cancer. Methylcholanthrene (MC) is a well-known effective trigger of stomach cancer in mice. Accordingly, this experiment used MC in designing TA2 mouse model of human stomach cancer. Detailed description of the use of methylcholanthrene to induce stomach cancer can be found in Wang X. H. et al., 1984, Chin Med J (Engl) 97(3):215–22, which is incorporated herein by reference in its entirety.
The animals used for the experiments were TA2 mice, 6 to 8 weeks old (obtainable from the Second Military Medical University, Shanghai, China). Both male and females with an average weight of about 18 to 20 gram were used. The stomach cancer cell line S784 (obtainable from MC-treated TA2 mouse provided by the Tianjian Medical University, China) in a suspension containing about 1.2×10^7 viable tumor cells (about 0.2 ml cell culture) was injected subcutaneously into the animals.
In group ADM, the mice were injected intravenously with 10^5 units of doxorubicin (adriamycin, ADM) per kg body weight per day.

[5] = 1 month after cessation of treatment
[6] = 2 months after cessation of treatment
[7] = 3 months after cessation of treatment
[8] = 4 months after cessation of treatment
[9] = 5 months after cessation of treatment
[10] = 6 months after cessation of treatment
[11] = mice that survived, observed over 6 months, 0.5 ml oral or ADM 1.5×10^5 units per kg i.v. per day
[12] = rats that survived, observed over 6 months, 1.2 ml oral or ADM 1.5×10^5 units per kg i.v. per day, 21 days

## COc1cccc2c1C(=O)c1c(O)c3c(c(O)c1C2=O)C[C@@](O)(C(=O)CO)C[C@@H]3O[C@H]1C[C@H](N)[C@H](O)[C@H](C)O1 [ADM, doxorubicin]
[1]; 0 month after cessation of treatment, 0.5 ml oral or ADM 1.5×10^5 units per kg i.v. per day
  Number of live animals remaining in the groups after 30 days of treatment: 30
[1]; 0.5 ml oral per day or ADM 1.5×10^5 units per kg per day, from injection of tumor cells
  survival of mice bearing stomach cancer cells: all died after four months
[1]; [5]
  Number of live animals remaining in the groups after 30 days of treatment: 30
[1]; [6]
  Number of live animals remaining in the groups after 30 days of treatment: 27
[1]; [7]
  Number of live animals remaining in the groups after 30 days of treatment: 16
[1]; [8]
  Number of live animals remaining in the groups after 30 days of treatment: 7
[1]; [9]
  Number of live animals remaining in the groups after 30 days of treatment: 0
[1]; [10]
  Number of live animals remaining in the groups after 30 days of treatment: 0
[1]; [11]
  mean weight of mice and standard deviation: all animals dead
  mean weight of stomach and standard deviation: all animals dead
  mean weight of tumor nodules and standard deviation: all animals dead
[2]
  mean weight of rats and standard deviation: 181.8 ± 12.8 g
  mean weight of tumor nodules and standard deviation: 446.4 ± 13.6 mg
[3]; 0 month after cessation of treatment, 1.2 ml oral or ADM 1.5×10^5 units per kg i.v. per day
  Number of live animals remaining in the groups after 21 days of treatment: 30
[3]; [5]
  Number of live animals remaining in the groups after 21 days of treatment: 30
[3]; 1.2 ml oral per day or ADM 1.5×10^5 units per kg per day, from injection of tumor cells
  survival of rats bearing stomach cancer cells: all died after four months
[3]; [6]
  Number of live animals remaining in the groups after 21 days of treatment: 30
[3]; [7]
  Number of live animals remaining in the groups after 21 days of treatment: 22
[3]; [8]
  Number of live animals remaining in the groups after 21 days of treatment: 17
[3]; [9]
  Number of live animals remaining in the groups after 21 days of treatment: 13
[3]; [10]
  Number of live animals remaining in the groups after 21 days of treatment: 0
[3]; [12]
  mean weight of rats and standard deviation: all animals dead
  mean weight of tumor nodules and standard deviation: all animals dead
[4]
  mean weight of mice and standard deviation: 19.8 ± 0.8 g
  mean weight of stomach and standard deviation: 621 ± 17 mg
  mean weight of tumor nodules and standard deviation: 346 ± 36 mg

— US7223400B2, “Method to prepare compositions comprising yeast treated with electromagnetic energy” (Ultra Biotech Limited, priority 2003, dated 2007)
